Results taken from patent US20110003760A1, “ABNORMAL PROTEIN REMOVING METHOD” (priority 2005, published 2011).

Assays:
[1] = system: carbonylated protein in three-dimensional human skin model TESTSKIN (LSE-high); experiment: Carbonylated protein in three-dimensional human skin model, Western blotting (DNPH); assay type: cell-based; details: for Relative photographic density (carbonylated protein): untreated without UV = 100%; for effect on accumulation of carbonylated protein: retinoic acid and retinol at 3 and 10 μM
Experimental: (§1) Three-dimensional human skin models are widely used in safety evaluation and effectiveness evaluation as a simulated model of human skin. In this test, TESTSKIN (LSE-high) (Toyobo Co., Ltd.) was used as a three-dimensional human skin model.
(§2) A culture medium was added to the outer well of TESTSKIN (LSE-high) and cultured for 24 hours. UVA and UVB were irradiated at 10 J/cm^2 and 100 mJ/cm^2, respectively. UVB was irradiated for 2 minutes at a UV intensity of […] using FL20S-E-30/DMR (Clinical Supply Co., Ltd.) to achieve a total irradiation dose of 100 mJ/cm^2. UV intensity was measured using a UV MONITOR MS-211-I (Eiko Instruments Co., Ltd.).
As a control group, three-dimensional human skin models not irradiated with UVA or UVB were also prepared.
(§3) Thereafter, the culture solution was changed and each agent was added by 100 μl onto the tissues in the assay ring, after which the medium was cultured for 36 hours. Thereafter, the tissues were collected and a tissue extraction solution (50 mM Tris-HCl (pH 7.5), 0.5% (Octylphenoxy) polyethoxyethanol (Sigma-Aldrich Corp.)) was added, and then the mixture was homogenized using a Teflon (registered trademark) homogenizer. The homogenized mixture was centrifuged for 30 minutes at 10,000×G to remove tissue fragments, and then dialyzed overnight in distilled water at 4° C. Thereafter, the dialyzed mixture was freeze-dried to remove water. A tissue extraction solution was added to obtain a ×20 concentrate, and this concentrate was used as a three-dimensional skin model extract sample.
In this test, 2,4-dinitrophenyl hydrazine (DNPH), which specifically bonds with the carbonyl group in the protein produced by oxidation damage, was used to label carbonylated protein, and then detection was performed using an anti-DNPH antibody that specifically bonds with DNPH.
The specific method is explained below. DNPH protein was detected from the protein in the sample by means of Western blotting using a DNPH kit (Oxi Blot™ Protein Oxidation Detection Kit; Chemicon International Inc.). Detection was performed by exposing PVDF membranes to light using a […] (ECL PLUS; Amarsham PLC), and an automatic developer (FPM100; FUJIFILM Medical Co., Ltd.) was used to transfer images. A densitometer (Molecular Dynamics Inc.) was then used to analyze the images to quantify the photographic density. For your information, protein in the sample was reduced and measured as deemed appropriate. In this case, 2-mercaptoethanol was used as a reducing agent and the mixture was heated for 5 minutes at 100° C. to sever the disulfide bond.
Based on the above results, it is clear that Bletilla striata extract and silybin suppress accumulation of carbonylated protein in a three-dimensional skin model in a manner dependent on the concentration. Accordingly, whether or not a combined use of Bletilla striata extract and silybin would synergistically suppress accumulation of carbonylated protein was evaluated. Also, whether or not a combined use of silybin and soybean saponin, a substance known to have an action to suppress accumulation of carbonylated protein, would synergistically suppress accumulation of carbonylated protein was evaluated. As a result, regardless of whether or not UV light was irradiated using silybin (3 μM) in combination with Bletilla striata extract (0.1%; final extract concentration of 0.001%), or using silybin (3 μM) in combination with soybean saponin (0.0005%), suppressed the accumulation of carbonylated protein synergistically compared to when a sample was treated with silybin (3 μM), Bletilla striata extract (0.1%; final extract concentration of 0.001%) or soybean saponin (0.0005%) alone, as far as accumulation of carbonylated protein in a three-dimensional skin model was concerned (FIG. 7 and Table 7; results of non-reduced protein).

[2] = system: trypsin-like proteasome activity in three-dimensional human skin model; experiment: Proteasome activity in three-dimensional human skin model; assay type: cell-based; details: for proteasome activity compared to the sample not given any treatment under UV irradiation (75%) / proteasome activity compared to the sample not given any treatment: FIG. 11; for proteasome activity compared to the sample not given any treatment: without UV irradiation; for effect on proteasome activity: retinoic acid and retinol at 3 and 10 μM
Experimental: as §1, §2, §3
Proteasome activity was measured using a known method (Hayashi, et al., Mechanisms of Aging and Development, Vol. 102, pp. 55-66, 1998) based on cell extract samples.
The specific method is as follows. For the matrix to measure trypsin-like proteasome activity, t-butyloxycarbonyl-L-leucyl-L-arginyl-L-arginyl-L-4-methyl-coumaryl-7-amide (Peptide Institute, Inc.) was used. A cell extract sample containing protein by an equivalent of 10 μg was added to 10.5 μl of a 100 μM matrix solution prepared with 100 mM Tris-HCl (pH 8.0), after which a cell extraction solution was added to a total volume of 50 μl. The obtained solution was treated for 30 minutes at 37° C., after which the fluorescence intensity of the separated 7-amine-4-methyl coumarin was measured at an excitation wavelength (Ex) of 380 nm and absorption waveform (Em) of 440 nm. The result was obtained for each sample type treated with each agent, as an “average ±standard error” calculated from the measured values of three samples.
Based on the above results, it is clear that Bletilla striata extract and silybin promote proteasome activity in a three-dimensional skin model in a manner dependent on the concentration. Accordingly, whether or not a combined use of Bletilla striata extract and silybin would synergistically promote proteasome activity was evaluated. Also, whether or not a combined use of silybin and soybean saponin, a substance known to have an action to promote proteasome activity, would synergistically promote proteasome activity was evaluated. As a result, regardless of whether or not UV light was irradiated, using silybin (3 μM) in combination with Bletilla striata extract (0.1%; final extract concentration of 0.001%), or using silybin (3 μM) in combination with soybean saponin (0.0005%), promoted proteasome activity synergistically compared to when a sample was treated with silybin (3 μM), Bletilla striata extract (0.1%; final extract concentration of 0.001%) or soybean saponin (0.0005%) alone, as far as promotion of proteasome activity in a three-dimensional skin model was concerned (FIG. 12).

CC1=C(/C=C/C(C)=C/C=C/C(C)=C/C(=O)O)C(C)(C)CCC1 [Retinoic acid, all-trans-retinoic acid]
amount of carbonylated protein compared to the sample not given any treatment under UV irradiation ([1]; non-reduced protein, 3 μM): little change | Relative photographic density (carbonylated protein) ([1]; non-reduced protein, treatment concentration 3 μM, UV (+)): 305% | Relative photographic density (carbonylated protein) ([1]; non-reduced protein, treatment concentration 3 μM, UV (−)): 110% | Relative photographic density (carbonylated protein) ([1]; non-reduced protein, treatment concentration 3 μM, UV (−), listed as retinoic acid): little change | amount of carbonylated protein compared to the sample not given any treatment under UV irradiation ([1]; reduced protein, 3 μM): little change | Relative photographic density (carbonylated protein) ([1]; reduced protein, treatment concentration 3 μM, UV (+)): 315% | Relative photographic density (carbonylated protein) ([1]; reduced protein, treatment concentration 3 μM, UV (−)): 105% | Relative photographic density (carbonylated protein) ([1]; reduced protein, treatment concentration 3 μM, UV (−), listed as retinoic acid): little change | effect on accumulation of carbonylated protein [1]: no effect | proteasome activity compared to the sample not given any treatment under UV irradiation (75%) ([2]; 3 μM): little change | proteasome activity compared to the sample not given any treatment ([2]; 3 μM): little change | effect on proteasome activity [2]: no effect

CC1=C(/C=C/C(C)=C/C=C/C(C)=C/CO)C(C)(C)CCC1 [Retinol, all-trans-retinol]
amount of carbonylated protein compared to the sample not given any treatment under UV irradiation ([1]; non-reduced protein, 10 μM): little change | Relative photographic density (carbonylated protein) ([1]; non-reduced protein, treatment concentration 10 μM, UV (+)): 315% | Relative photographic density (carbonylated protein) ([1]; non-reduced protein, treatment concentration 10 μM, UV (−)): 115% | Relative photographic density (carbonylated protein) ([1]; non-reduced protein, treatment concentration 10 μM, UV (−), listed as retinol): little change | amount of carbonylated protein compared to the sample not given any treatment under UV irradiation ([1]; reduced protein, 10 μM): little change | Relative photographic density (carbonylated protein) ([1]; reduced protein, treatment concentration 10 μM, UV (+)): 330% | Relative photographic density (carbonylated protein) ([1]; reduced protein, treatment concentration 10 μM, UV (−)): 110% | Relative photographic density (carbonylated protein) ([1]; reduced protein, treatment concentration 10 μM, UV (−), listed as retinol): little change | effect on accumulation of carbonylated protein [1]: no effect | proteasome activity compared to the sample not given any treatment under UV irradiation (75%) ([2]; 10 μM): little change | proteasome activity compared to the sample not given any treatment ([2]; 10 μM): little change | effect on proteasome activity [2]: no effect
